Test results published in ChEMBL document CHEMBL2331094 (Bioorg Med Chem Lett, 2013).

Experiments:
Assay type in all cases: cell-based
[1] = molecular target: T1, Lysophosphatidic acid receptor 3 (Homo sapiens) (UniProt Q9UBY5); experiment: Intrinsic activity at human LPA3 receptor transfected in HEK293 cells after 1 hr by TGFalpha shedding assay relative to LPA
T1 sequence (whole entry): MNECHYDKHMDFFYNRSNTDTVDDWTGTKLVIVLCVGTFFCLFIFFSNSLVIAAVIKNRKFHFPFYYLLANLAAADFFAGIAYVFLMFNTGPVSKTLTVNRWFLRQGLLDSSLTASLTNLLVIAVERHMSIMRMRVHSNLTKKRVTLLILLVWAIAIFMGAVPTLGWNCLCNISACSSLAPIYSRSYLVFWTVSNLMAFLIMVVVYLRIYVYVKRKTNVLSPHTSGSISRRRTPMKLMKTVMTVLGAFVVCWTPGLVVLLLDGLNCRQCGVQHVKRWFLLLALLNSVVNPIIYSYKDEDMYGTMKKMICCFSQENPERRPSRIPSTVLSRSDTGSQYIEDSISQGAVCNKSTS

[2] = molecular target: T2, Lysophosphatidic acid receptor 6 (Homo sapiens, UniProt P43657); experiment: Agonist activity at human LPA6 receptor transfected in HEK293 cells after 1 hr by TGFalpha shedding assay in presence of Ki16425
T2 sequence (P43657 whole entry): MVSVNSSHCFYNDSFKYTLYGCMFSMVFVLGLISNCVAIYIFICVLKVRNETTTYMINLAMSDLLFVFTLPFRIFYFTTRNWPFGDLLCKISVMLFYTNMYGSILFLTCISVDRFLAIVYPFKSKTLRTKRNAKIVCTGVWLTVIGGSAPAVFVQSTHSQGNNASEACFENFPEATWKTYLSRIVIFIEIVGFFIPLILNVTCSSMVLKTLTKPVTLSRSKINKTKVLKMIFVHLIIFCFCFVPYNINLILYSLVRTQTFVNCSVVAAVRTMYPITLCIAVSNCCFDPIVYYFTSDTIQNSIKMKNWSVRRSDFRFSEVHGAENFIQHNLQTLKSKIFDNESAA

[3] = molecular target: T3, Lysophosphatidic acid receptor 1 (Homo sapiens, UniProt Q92633); experiment: Agonist activity at human LPA1 receptor transfected in HEK293 cells after 1 hr by TGFalpha shedding assay
T3 sequence (Q92633 whole entry): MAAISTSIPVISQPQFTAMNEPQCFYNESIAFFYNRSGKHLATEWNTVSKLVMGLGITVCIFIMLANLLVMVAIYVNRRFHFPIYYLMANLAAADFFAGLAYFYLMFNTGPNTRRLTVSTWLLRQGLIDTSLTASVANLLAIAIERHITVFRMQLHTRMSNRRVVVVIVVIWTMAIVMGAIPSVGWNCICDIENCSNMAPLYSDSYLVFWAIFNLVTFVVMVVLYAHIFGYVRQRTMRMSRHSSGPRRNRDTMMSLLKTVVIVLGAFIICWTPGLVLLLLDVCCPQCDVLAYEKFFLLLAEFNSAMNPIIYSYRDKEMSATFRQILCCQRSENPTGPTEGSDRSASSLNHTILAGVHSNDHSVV

[4] = molecular target: T4, Lysophosphatidic acid receptor 4 (Homo sapiens, UniProt Q99677); experiment: Agonist activity at human LPA4 receptor transfected in HEK293 cells after 1 hr by TGFalpha shedding assay in presence of Ki16425
T4 sequence (Q99677 whole entry): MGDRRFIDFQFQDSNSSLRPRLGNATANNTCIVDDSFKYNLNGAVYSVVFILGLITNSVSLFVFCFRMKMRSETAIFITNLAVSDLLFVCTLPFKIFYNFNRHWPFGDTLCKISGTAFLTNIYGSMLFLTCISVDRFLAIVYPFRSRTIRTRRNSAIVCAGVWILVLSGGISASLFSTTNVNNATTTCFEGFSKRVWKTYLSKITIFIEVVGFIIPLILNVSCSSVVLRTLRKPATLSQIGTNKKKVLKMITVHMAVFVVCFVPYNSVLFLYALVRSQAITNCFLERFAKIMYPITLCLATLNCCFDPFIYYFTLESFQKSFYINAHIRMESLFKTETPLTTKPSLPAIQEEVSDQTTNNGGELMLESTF

[5] = molecular target: T5, Lysophosphatidic acid receptor 2 (Homo sapiens, UniProt Q9HBW0); experiment: Intrinsic activity at human LPA2 receptor transfected in HEK293 cells after 1 hr by TGFalpha shedding assay relative to LPA
T5 sequence (Q9HBW0 whole entry): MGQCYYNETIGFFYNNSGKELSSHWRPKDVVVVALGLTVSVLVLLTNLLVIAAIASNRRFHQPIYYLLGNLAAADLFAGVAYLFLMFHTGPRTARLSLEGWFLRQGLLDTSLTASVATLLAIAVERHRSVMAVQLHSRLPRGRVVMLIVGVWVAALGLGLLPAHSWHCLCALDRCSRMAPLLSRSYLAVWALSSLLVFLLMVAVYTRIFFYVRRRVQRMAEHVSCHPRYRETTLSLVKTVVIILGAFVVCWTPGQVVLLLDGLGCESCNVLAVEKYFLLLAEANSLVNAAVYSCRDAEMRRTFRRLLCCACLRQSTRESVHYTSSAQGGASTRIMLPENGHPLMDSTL

[6] = molecular target: T6, Lysophosphatidic acid receptor 5 (Homo sapiens, UniProt Q9H1C0); experiment: Agonist activity at human LPA5 receptor transfected in HEK293 cells after 1 hr by TGFalpha shedding assay in presence of Ki16425
T6 sequence (Q9H1C0 whole entry): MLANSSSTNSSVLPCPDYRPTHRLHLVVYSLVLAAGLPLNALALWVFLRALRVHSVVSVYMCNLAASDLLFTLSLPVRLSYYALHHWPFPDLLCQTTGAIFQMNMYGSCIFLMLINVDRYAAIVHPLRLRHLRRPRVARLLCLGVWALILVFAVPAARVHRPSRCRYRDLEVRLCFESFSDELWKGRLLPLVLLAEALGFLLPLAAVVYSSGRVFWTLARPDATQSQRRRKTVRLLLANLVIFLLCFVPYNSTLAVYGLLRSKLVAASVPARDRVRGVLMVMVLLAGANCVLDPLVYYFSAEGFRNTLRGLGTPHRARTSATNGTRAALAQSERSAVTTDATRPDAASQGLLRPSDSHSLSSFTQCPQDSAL

[7] = molecular target: T5, Lysophosphatidic acid receptor 2; experiment: Agonist activity at human LPA2 receptor transfected in HEK293 cells after 1 hr by TGFalpha shedding assay
[8] = molecular target: T6, Lysophosphatidic acid receptor 5; experiment: Intrinsic activity at human LPA5 receptor transfected in HEK293 cells after 1 hr by TGFalpha shedding assay in presence of Ki16425 relative to LPA
[9] = molecular target: T4, Lysophosphatidic acid receptor 4; experiment: Intrinsic activity at human LPA4 receptor transfected in HEK293 cells after 1 hr by TGFalpha shedding assay in presence of Ki16425 relative to LPA
[10] = molecular target: T7, Lysophosphatidic acid receptor 3 (Homo sapiens, UniProt Q9UBY5); experiment: Agonist activity at human LPA3 receptor transfected in HEK293 cells after 1 hr by TGFalpha shedding assay
T7 sequence (Q9UBY5 whole entry): T1 sequence (whole entry)

[11] = molecular target: T3, Lysophosphatidic acid receptor 1; experiment: Intrinsic activity at human LPA1 receptor transfected in HEK293 cells after 1 hr by TGFalpha shedding assay relative to LPA
[12] = molecular target: T8, Lysophosphatidic acid receptor 6 (Homo sapiens) (UniProt P43657); experiment: Intrinsic activity at human LPA6 receptor transfected in HEK293 cells after 1 hr by TGFalpha shedding assay in presence of Ki16425 relative to LPA
T8 sequence (whole entry): T2 sequence (P43657 whole entry)

| Compound | Intrinsic activity [1] | EC50 [2] [nM] | EC50 [3] [nM] | EC50 [4] [nM] | Intrinsic activity [5] | EC50 [6] [nM] | EC50 [7] [nM] | Intrinsic activity [8] | Intrinsic activity [9] | EC50 [10] [nM] | Intrinsic activity [11] | Intrinsic activity [12] |
| --- | --- | --- | --- | --- | --- | --- | --- | --- | --- | --- | --- | --- |
| CCCCCCCCCCCCCCCCCC(=O)OC[C@H](COP(O)(O)=S)OC | 260 | 58 | 24 | 4.9 | 0.178 | 8.2 | 149 | 8.4 | 1.6 | 0.44 | 0.61 | 19.3 |
| CCCCCCCCCCCCCCCCCCOC[C@@H](COP(O)(O)=S)OC | 390 | 90 | 10.1 | 3.5 | 0.34 | 3.4 | 110 | 23 | 2.7 | 0.37 | 1.2 | 11 |
| CCCCCCCCCCCCCCCC(=O)OC[C@@H](O)COP(=O)(O)O | 0.102 | 930 | 71 | 84 | 0.092 | 68 | 290 | 1.04 | 0.14 | 580 | 0.24 | 0.25 |
| CCCCCCCCCCCCCCCCOC(COC)COP(O)(O)=S (configuration not stated) | 300 | 66 | 26 | 3.8 | 0.046 | 0.26 | 116 | 300 | 2.1 | 0.36 | 0.38 | 10.9 |
| CCCCCCCCCCCCCCCCCOC(COC)COP(O)(O)=S (racemic) | 340 | 78 | 11.1 | 4.5 | 0.3 | 3 | 117 | 26 | 2 | 0.39 | 1.29 | 15.1 |
| CCCCCCCCCCCCCCCCCCOCC(COP(O)(O)=S)OC (racemic) | 570 | 39 | 8.4 | 3.8 | 0.26 | 0.83 | 100 | 114 | 2.2 | 0.23 | 1.63 | 27 |
| CCCCCCCCCCCCCCCCCCOC[C@H](COP(O)(O)=S)OC | 140 | 105 | 31 | 4.9 | 0.088 | 6.1 | 350 | 16 | 2.1 | 1.08 | 0.57 | 10.9 |
| CCCCCCCCCCCCCCCCCC(=O)OC(COC)COP(O)(O)=S (racemic) | 600 | 76 | 12.2 | 2.4 | 0.165 | 1.81 | 146 | 41 | 3.9 | 0.21 | 1.15 | 14.3 |
| CCCCCCCCCCCCCCCCCC(=O)OC[C@@H](COP(O)(O)=S)OC | 500 | 79 | 14.7 | 2.7 | 0.25 | 5.1 | 112 | 14.8 | 3.1 | 0.27 | 0.94 | 13.1 |
| CCCCCCCC/C=C\CCCCCCCC(=O)OC[C@@H](O)COP(=O)(O)O [LYSOPHOSPHATIDIC ACID] | 1 | – | 18 | – | 1 | – | – | 1 | 1 | – | 1 | 1 |
| CCCCCCCCCCCCCCCCCC(=O)OCC(COP(=O)(O)S)OC (racemic) | 410 | 86 | 16.5 | 3.3 | 0.188 | 6.3 | 161 | 11.1 | 2.6 | 0.28 | 0.79 | 13.3 |
